# Where two headings read alike, the source gives them in different places.
# Tests used:
# SK-OV-3 = experiment: NCI in vitro SRB assay, Ovarian Cancer; format: cell-based
# Method: (§1) An in vitro assay which tested the ability of N,N,-diethyl-8,8-dipropyl-2-azaspiro[4,5]decane-2-propanamine dimaleate (Compound 1) to inhibit the growth of known cancer cell lines was performed by the National Cancer Institute in accordance with standard procedures. See: Lin, Z. X., Hoult, J. R., and Raman, A. Sulphorhodamine B assay for measuring proliferation of a pigmented melanocyte cell line and its application to the evaluation of crude drugs used in the treatment of vitiligo. J Ethnopharmacol. 66: 141-150, 1999. Briefly, selected tumor cell lines were cultured in media containing five different concentrations of Compound 1. After 48 hours of continuous exposure, a sulforhodamine B (SRB) assay was used to estimate cell viability or growth via optical measurements.
# (§2) From the measurements, the following values were determined: 1) the concentration of Compound 1 at which a tumor cell growth inhibition of 50% (relative to control) occurs (GI50), 2) the concentration of Compound 1 at which no growth occurs (total growth inhibition, TGI), and 3) the concentration of Compound 1 at which the […] (LC 50). […] FIG. 6 illustrates, graphically, tumor cell growth as a function of Compound 1 concentration of the scanned tumor cell lines.
# OVCAR-4 = experiment: NCI in vitro SRB assay, Ovarian Cancer; format: cell-based
# Method: as §1, §2
# OVCAR-3 = experiment: NCI in vitro SRB assay, Ovarian Cancer; format: cell-based
# Method: as §1, §2
# IGROV1 = experiment: NCI in vitro SRB assay, Ovarian Cancer; format: cell-based
# Method: as §1, §2
# OVCAR-8 = experiment: NCI in vitro SRB assay, Ovarian Cancer; format: cell-based
# Method: as §1, §2
# OVCAR-5 = experiment: NCI in vitro SRB assay, Ovarian Cancer; format: cell-based
# Method: as §1, §2
# CaCo-2 cells = experiment: Induction of apoptosis, DNA fragmentation analysis, CaCo-2; format: cell-based, human; settings: 12 hours treatment
# Method: T84, CaCo-2 and HUVEC cells, respectively, were grown in 100 mm dishes for 7-9 days, culture media for HUVEC was EGM-2 (Clonetics, BioWhitaker Co.), until they reached semi-confluency. Cell monolayers were then treated for 12 hours (CaCo-2 and T84) and 16 hours (HUVEC), respectively, at the indicated concentrations of N,N,-diethyl-8,8-dipropyl-2-azaspiro[4,5]decane-2-propanamine dimaleate (Compound 1) in culture media. Cells were collected by trypsinization and the apoptotic DNA was isolated from these cells following the instructions of the DNA fragmentation analysis kit (Boehringer Mannheim Corp., Indianapolis, Ind.). The apoptotic DNA was evaluated using 1.5% agarose gel electrophoresis followed by staining with ethidium bromide. M denotes the lane containing molecular weight markers of DNA.
# MCF7 = experiment: NCI in vitro SRB assay, Breast Cancer; format: cell-based; settings: for CC50 / GI50: Homo sapiens
# Method: as §1, §2
# T-47D = experiment: NCI in vitro SRB assay, Breast Cancer; format: cell-based
# Method: as §1, §2
# MDA-MB-231/ATCC = experiment: NCI in vitro SRB assay, Breast Cancer; format: cell-based; settings: for GI50 / CC50: Homo sapiens
# Method: as §1, §2
# HUVEC = HUVEC cord formation assay (Matrigel); format: cell-based; settings: Homo sapiens, 24 hour incubation, read-out: IC50 Concentration, Cord Formation
# Method: Matrigel (60 μl of 10 mg/ml; Collaborative Lab # 35423) was placed in each well of an ice-cold 96-well plate. The plate is allowed to sit at room temperature for 15 minutes then incubated at 37° C. for 30 minutes to permit the matrigel to polymerize. In the mean time, HUVEC are prepared in EGM-2 (Clonetic# CC3162) at a concentration of 2×10^5 cells/ml. Test solutions of Compound I are prepared at 2× the desired concentration (5 concentration levels) in the same medium. The cells (500 μl) and 2× Compound 1 (500 μl) solution are mixed and 200 μl of this suspension are placed in duplicate on the polymerized matrigel. After a 24 hour incubation, triplicate pictures are taken for each concentration using a Bioquant Image Analysis system. Drug effect (IC50) is assessed compared to untreated controls by measuring the length of cords formed and number of junctions, and is reported in Table 8.
# [1] = MDA-MB-231/ATCC, Log10 conc -4.0 Moles/L
# [2] = MDA-MB-231/ATCC, Log10 conc -5.0 Moles/L
# [3] = MDA-MB-231/ATCC, Log10 conc -6.0 Moles/L
# [4] = MDA-MB-231/ATCC, Log10 conc -7.0 Moles/L
# [5] = MDA-MB-231/ATCC, Log10 conc -8.0 Moles/L
compound,measurement,setting,value
"CCCC1(CCC)CCC2(CCN(CCCN(CC)CC)C2)CC1.O=C(O)/C=C\C(=O)O.O=C(O)/C=C\C(=O)O [Compound 1, N,N,-diethyl-8,8-dipropyl-2-azaspiro[4,5]decane-2-propanamine dimaleate]",CC50,"SK-OV-3; Homo sapiens, SK-OV-3, read-out: Log10 LC50 (converted)",58900 nM
same,GI50,"SK-OV-3; Homo sapiens, SK-OV-3, read-out: Log10 GI50 (converted)",4570 nM
same,Log10 TGI,SK-OV-3; SK-OV-3,−5.10
same,CC50,"OVCAR-4; Homo sapiens, OVCAR-4, read-out: Log10 LC50 (converted)",6610 nM
same,GI50,"OVCAR-4; Homo sapiens, OVCAR-4, read-out: Log10 GI50 (converted)",1620 nM
same,Log10 TGI,OVCAR-4; OVCAR-4,−5.49
same,Log10 TGI,OVCAR-3,−5.21
same,GI50,"OVCAR-3; Homo sapiens, read-out: Log10 GI50 (converted)",2340 nM
same,CC50,"IGROV1; Homo sapiens, IGROV-1, read-out: Log10 LC50 (converted)",> 100000 nM
same,GI50,"IGROV1; Homo sapiens, IGROV-1, IGROV1, read-out: Log10 GI50 (converted)",2450 nM
same,Log10 TGI,IGROV1; IGROV1,>−4.00
same,CC50,"OVCAR-8; Homo sapiens, OVCAR-8, read-out: Log10 LC50 (converted)",> 100000 nM
same,GI50,"OVCAR-8; Homo sapiens, OVCAR-8, read-out: Log10 GI50 (converted)",2690 nM
same,Log10 TGI,OVCAR-8; OVCAR-8,−4.92
same,CC50,"OVCAR-5; Homo sapiens, OVCAR-5, read-out: Log10 LC50 (converted)",7080 nM
same,GI50,"OVCAR-5; Homo sapiens, OVCAR-5, read-out: Log10 GI50 (converted)",2400 nM
same,Log10 TGI,OVCAR-5; OVCAR-5,−5.39
same,DNA ladder formation (apoptosis),CaCo-2 cells,formation of DNA laddering in a dose-dependent manner
same,CC50,"MCF7; MCF7, read-out: LC50",5600 nM
same,CC50,"MCF7; MCF7, read-out: Log10 LC50 (converted)",5620 nM
same,GI50,"MCF7; MCF7, read-out: GI50",1330 nM
same,GI50,"MCF7; MCF7, read-out: Log10 GI50 (converted)",1320 nM
same,Log10 TGI,MCF7; MCF7,−5.56
same,TGI,MCF7; MCF7,2730 nM
same,Mean Optical Densities,"MCF7; MCF7, Log10 conc -4.0 Moles/L",0.051
same,Percent Growth,"MCF7; MCF7, Log10 conc -4.0 Moles/L",−70%
same,Mean Optical Densities,"MCF7; MCF7, Log10 conc -5.0 Moles/L",0.017
same,Percent Growth,"MCF7; MCF7, Log10 conc -5.0 Moles/L",−90%
same,Mean Optical Densities,"MCF7; MCF7, Log10 conc -6.0 Moles/L",0.996
same,Percent Growth,"MCF7; MCF7, Log10 conc -6.0 Moles/L",70%
same,Mean Optical Densities,"MCF7; MCF7, Log10 conc -7.0 Moles/L",1.339
same,Percent Growth,"MCF7; MCF7, Log10 conc -7.0 Moles/L",99%
same,Mean Optical Densities,"MCF7; MCF7, Log10 conc -8.0 Moles/L",1.311
same,Percent Growth,"MCF7; MCF7, Log10 conc -8.0 Moles/L",96%
same,TGI,T-47D,4110 nM
same,GI50,"T-47D; Homo sapiens, T47D",1710 nM
same,Mean Optical Densities,T-47D; Log10 conc -4.0 Moles/L,0.207
same,Percent Growth,T-47D; Log10 conc -4.0 Moles/L,−38%
same,Mean Optical Densities,T-47D; Log10 conc -5.0 Moles/L,0.164
same,Percent Growth,T-47D; Log10 conc -5.0 Moles/L,−51%
same,Mean Optical Densities,T-47D; Log10 conc -6.0 Moles/L,1.024
same,Percent Growth,T-47D; Log10 conc -6.0 Moles/L,81%
same,Mean Optical Densities,T-47D; Log10 conc -7.0 Moles/L,1.176
same,Percent Growth,T-47D; Log10 conc -7.0 Moles/L,98%
same,Mean Optical Densities,T-47D; Log10 conc -8.0 Moles/L,0.837
same,Percent Growth,T-47D; Log10 conc -8.0 Moles/L,59%
same,GI50,"MDA-MB-231/ATCC; MDA-MB-231, MDA-MB-231/ATCC, read-out: GI50",1090 nM
same,GI50,"MDA-MB-231/ATCC; MDA-MB-231, line printed ""231/ATCC"" (second line of the wrapped name), read-out: Log10 GI50 (converted)",1860 nM
same,GI50,"MDA-MB-231/ATCC; MDA-MB-231, line printed ""MDA-MB-"" (first line of MDA-MB-231/ATCC), read-out: Log10 GI50 (converted)",1100 nM
same,CC50,"MDA-MB-231/ATCC; MDA-MB-231, read-out: LC50, MDA-MB-231/ATCC",5180 nM
same,CC50,"MDA-MB-231/ATCC; MDA-MB-231, read-out: Log10 LC50, line printed ""231/ATCC"" (second line of the wrapped name) (converted)",8510 nM
same,CC50,"MDA-MB-231/ATCC; MDA-MB-231, read-out: Log10 LC50, line printed ""MDA-MB-"" (first line of MDA-MB-231/ATCC) (converted)",5130 nM
same,TGI,MDA-MB-231/ATCC; MDA-MB-231/ATCC,2370 nM
same,Mean Optical Densities,MDA-MB-231/ATCC; [1],0.038
same,Percent Growth,MDA-MB-231/ATCC; [1],−94%
same,Mean Optical Densities,MDA-MB-231/ATCC; [2],0.053
same,Percent Growth,MDA-MB-231/ATCC; [2],−92%
same,Mean Optical Densities,MDA-MB-231/ATCC; [3],0.839
same,Percent Growth,MDA-MB-231/ATCC; [3],55%
same,Mean Optical Densities,MDA-MB-231/ATCC; [4],0.863
same,Percent Growth,MDA-MB-231/ATCC; [4],63%
same,Mean Optical Densities,MDA-MB-231/ATCC; [5],0.897
same,Percent Growth,MDA-MB-231/ATCC; [5],75%
same,Log10 TGI,"MDA-MB-231/ATCC; line printed ""231/ATCC"" (second line of the wrapped name)",−5.40
same,Log10 TGI,"MDA-MB-231/ATCC; line printed ""MDA-MB-"" (first line of MDA-MB-231/ATCC)",−5.63
same,IC50,HUVEC,2630 nM
